Experimental data taken from ChEMBL document CHEMBL1201862, “PubChem BioAssay data set” (2004).
Active and inactive are the calls of the source. Rule as the data show it, for most assays here: actives have a measured IC50 and inactives only a lower limit.

Assays:
SUMO E1/E2 = SUMO E1/E2 (Homo sapiens, UniProt P63279+Q9UBE0+Q9UBT2); test: SAR analysis of SUMOylation using HTRF in an in-Vitro dose response assay. [Related pubchem assays (depositor defined):AID2006, AID2011, AID2018, AID2069, AID2658]; type: functional
[1] = target: T1, Carboxy-terminal domain RNA polymerase II polypeptide A small phosphatase 1 (Homo sapiens, UniProt Q9GZU7); test: CTDSP1 inhibitors, concentration-response, biochemical, absorbance readout, ultra-high-throughput screen actives (AID 540297); type: functional
T1 sequence (Q9GZU7 whole entry): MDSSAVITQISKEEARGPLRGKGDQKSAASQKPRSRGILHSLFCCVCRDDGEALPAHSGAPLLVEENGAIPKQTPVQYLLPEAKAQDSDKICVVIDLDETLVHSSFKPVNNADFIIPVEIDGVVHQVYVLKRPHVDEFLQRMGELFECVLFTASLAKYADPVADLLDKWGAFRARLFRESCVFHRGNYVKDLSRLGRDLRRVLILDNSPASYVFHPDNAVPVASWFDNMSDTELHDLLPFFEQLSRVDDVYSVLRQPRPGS

SUMO-activating enzyme [2] = target: T2, SUMO-activating enzyme (Homo sapiens, UniProt Q9UBT2); test: blockers of UBC9-mediated SUMO conjugation – biochemical, AlphaScreen, SUMOylation inhibitor project, confirmation (AID 2018); type: functional
SUMO-activating enzyme [3] = target: T2, SUMO-activating enzyme; test: blockers of SAE1/SAE2–UBC9 SUMO transfer – biochemical, HTRF, uHTS, primary screen (AID 2006); type: protein-complex assay
HEK293 [4] = test: inhibition of NOD1-driven NF-kB reporter – cell-based, luminescence, uHTS, primary screen (AID 1578); type: functional; conditions: Homo sapiens
HEK293 [5] = test: cells; type: functional, cell-based; conditions: Homo sapiens
HEK293 [6] = test: cells; type: functional, cell-based; conditions: Homo sapiens; remark: listed apart in the source
HEK293 [7] = test: NOD2 signaling inhibitors in MDP-stimulated cells, cell-based, uHTS, luminescence (AID 2001); type: functional; conditions: Homo sapiens
[8] = target: Lysine-specific demethylase 4C (Homo sapiens, UniProt Q9H3R0); test: inhibition of JMJD2C H3K9me3 demethylation – biochemical, DELFIA europium, cherry-picked samples, dose response (AID 488835); type: functional
[9] = target: T3, Tyrosine-protein phosphatase non-receptor type 22 (Homo sapiens, UniProt Q9Y2R2); type: functional
T3 sequence (Q9Y2R2 whole entry): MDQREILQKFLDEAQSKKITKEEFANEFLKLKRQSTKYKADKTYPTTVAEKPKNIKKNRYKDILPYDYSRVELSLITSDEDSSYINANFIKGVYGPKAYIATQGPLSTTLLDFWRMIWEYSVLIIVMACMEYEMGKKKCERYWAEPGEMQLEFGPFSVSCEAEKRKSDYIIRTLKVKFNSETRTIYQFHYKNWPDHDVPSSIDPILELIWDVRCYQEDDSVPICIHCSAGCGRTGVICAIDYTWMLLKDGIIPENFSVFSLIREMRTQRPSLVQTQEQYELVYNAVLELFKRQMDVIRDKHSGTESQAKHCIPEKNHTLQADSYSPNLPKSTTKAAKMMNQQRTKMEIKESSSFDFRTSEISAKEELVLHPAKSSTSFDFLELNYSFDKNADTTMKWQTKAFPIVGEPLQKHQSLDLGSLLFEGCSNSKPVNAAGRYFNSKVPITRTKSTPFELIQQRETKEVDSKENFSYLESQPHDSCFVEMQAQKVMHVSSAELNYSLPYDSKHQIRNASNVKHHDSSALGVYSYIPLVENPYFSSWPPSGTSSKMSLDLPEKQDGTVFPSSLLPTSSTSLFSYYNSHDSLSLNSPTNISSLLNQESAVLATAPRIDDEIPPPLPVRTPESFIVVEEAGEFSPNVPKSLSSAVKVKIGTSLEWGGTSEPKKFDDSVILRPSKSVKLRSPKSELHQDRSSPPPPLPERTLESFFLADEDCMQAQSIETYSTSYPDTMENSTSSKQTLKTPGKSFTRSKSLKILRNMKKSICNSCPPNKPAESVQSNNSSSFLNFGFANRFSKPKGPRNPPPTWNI

[10] = target: T4, Tyrosine-protein phosphatase non-receptor type 7 (Homo sapiens, UniProt P35236); type: functional
T4 sequence (P35236 whole entry): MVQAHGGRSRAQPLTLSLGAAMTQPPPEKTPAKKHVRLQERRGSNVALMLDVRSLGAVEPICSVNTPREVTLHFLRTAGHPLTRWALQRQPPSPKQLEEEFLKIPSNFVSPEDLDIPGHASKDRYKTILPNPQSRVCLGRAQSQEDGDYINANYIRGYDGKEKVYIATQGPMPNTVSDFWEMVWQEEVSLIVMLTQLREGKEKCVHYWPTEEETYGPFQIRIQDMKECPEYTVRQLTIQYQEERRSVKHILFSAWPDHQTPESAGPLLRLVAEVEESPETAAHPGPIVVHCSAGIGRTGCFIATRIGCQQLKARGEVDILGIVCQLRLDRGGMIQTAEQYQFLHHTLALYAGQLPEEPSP

[11] = target: T3, Tyrosine-protein phosphatase non-receptor type 22; type: functional; remark: listed apart in the source
[12] = non-specific 3'UTR reporter inhibition in Clone20-Shn3RL – cell-based, Renilla luciferase, cherry-picked, counter-screen for Shn3 inhibitor project, dose response (AID 624133); type: functional
HEK293 [13] = test: cells; type: functional, cell-based; conditions: Homo sapiens; remark: listed apart in the source
[14] = reduction of Shn3 3'UTR-driven luciferase in osteoblasts – cell-based, Clone20 osteoblasts, firefly luciferase, cherry-picked, dose response (AID 624132); type: functional;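 also: firefly luciferase luminescence from reporter carrying the Shn3 3'UTR in osteoblasts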
[15] = target: T5, Nucleotide-binding oligomerization domain-containing protein 1 (Homo sapiens, UniProt Q9Y239); test: blockers of NOD1 pathway activity – revised, SAR follow-up (AID 2333); type: functional
T5 sequence (Q9Y239 whole entry): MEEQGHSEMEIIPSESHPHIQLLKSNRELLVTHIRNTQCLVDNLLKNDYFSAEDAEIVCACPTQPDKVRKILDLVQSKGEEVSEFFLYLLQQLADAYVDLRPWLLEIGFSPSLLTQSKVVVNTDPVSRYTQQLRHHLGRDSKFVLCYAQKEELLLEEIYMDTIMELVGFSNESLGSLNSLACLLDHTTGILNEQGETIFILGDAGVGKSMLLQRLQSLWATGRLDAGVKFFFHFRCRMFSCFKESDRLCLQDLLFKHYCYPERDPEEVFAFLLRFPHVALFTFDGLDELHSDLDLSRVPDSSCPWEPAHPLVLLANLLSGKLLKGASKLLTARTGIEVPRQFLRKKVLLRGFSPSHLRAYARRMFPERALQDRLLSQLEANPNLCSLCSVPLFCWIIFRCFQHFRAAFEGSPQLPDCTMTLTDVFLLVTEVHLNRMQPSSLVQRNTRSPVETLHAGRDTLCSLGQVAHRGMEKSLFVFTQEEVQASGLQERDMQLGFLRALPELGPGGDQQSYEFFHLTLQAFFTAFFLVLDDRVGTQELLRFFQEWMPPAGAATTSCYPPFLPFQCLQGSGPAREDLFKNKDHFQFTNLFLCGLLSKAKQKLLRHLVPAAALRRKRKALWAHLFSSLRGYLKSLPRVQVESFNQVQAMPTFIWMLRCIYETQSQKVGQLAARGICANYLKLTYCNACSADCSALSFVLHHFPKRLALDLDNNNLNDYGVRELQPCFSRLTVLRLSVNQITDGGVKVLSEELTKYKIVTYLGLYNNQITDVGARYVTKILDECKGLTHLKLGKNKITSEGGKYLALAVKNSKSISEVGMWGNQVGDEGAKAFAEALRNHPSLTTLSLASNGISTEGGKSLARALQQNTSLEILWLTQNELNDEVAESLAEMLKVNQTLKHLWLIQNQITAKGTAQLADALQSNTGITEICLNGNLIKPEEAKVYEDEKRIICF

[16] = loss of viability in HepG2 cells – cell-based, CellTiter-Glo, cherry-picked, cytotoxicity control for Shn3 inhibitor project, dose response (AID 624134); type: functional
[17] = target: Nucleotide-binding oligomerization domain-containing protein 2 (Homo sapiens, UniProt Q9HC29); test: inhibition of NOD2-driven NF-kB reporter – cell-based, luminescence, uHTS, HEK293 (AID 1566); type: functional
[18] = target: T6, Zinc finger protein mex-5 (Caenorhabditis elegans, UniProt Q9XUB2); test: potency of MEX-5 RNA-binding blockers – biochemical, C. elegans, fluorescence polarization, dose response (AID 1960)
T6 sequence (Q9XUB2 whole entry): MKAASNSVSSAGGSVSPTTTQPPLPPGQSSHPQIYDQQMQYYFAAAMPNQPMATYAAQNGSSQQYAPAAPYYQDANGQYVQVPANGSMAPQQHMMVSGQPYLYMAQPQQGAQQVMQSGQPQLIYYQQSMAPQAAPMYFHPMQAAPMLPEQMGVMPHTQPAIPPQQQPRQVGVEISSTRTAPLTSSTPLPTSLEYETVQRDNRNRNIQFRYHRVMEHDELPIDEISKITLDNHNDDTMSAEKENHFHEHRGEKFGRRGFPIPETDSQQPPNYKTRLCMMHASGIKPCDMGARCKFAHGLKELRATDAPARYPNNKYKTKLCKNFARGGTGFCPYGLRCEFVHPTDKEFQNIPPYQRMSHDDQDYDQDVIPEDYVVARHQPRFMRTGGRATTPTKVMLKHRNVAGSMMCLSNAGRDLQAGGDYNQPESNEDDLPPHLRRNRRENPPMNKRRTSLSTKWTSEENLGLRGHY

[19] = target: T7, RNA-binding protein pos-1 (Caenorhabditis elegans, UniProt G5EF15); test: disruptors of C. elegans POS-1 RNA interaction – biochemical, fluorescence polarization, dose response (AID 1964);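 also: purified POS-1 fused to maltose binding protein made in E. coli; potency of compounds blocking POS-1 binding to fluorescent RNA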
T7 sequence (G5EF15 whole entry): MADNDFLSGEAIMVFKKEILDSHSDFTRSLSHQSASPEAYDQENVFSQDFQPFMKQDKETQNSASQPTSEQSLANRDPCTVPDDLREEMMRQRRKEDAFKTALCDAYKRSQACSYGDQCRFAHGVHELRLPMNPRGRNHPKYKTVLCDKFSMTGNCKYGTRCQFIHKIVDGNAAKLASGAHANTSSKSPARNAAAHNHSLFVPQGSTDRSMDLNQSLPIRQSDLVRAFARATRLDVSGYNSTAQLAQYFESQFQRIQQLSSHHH

[20] = target: Alkaline phosphatase, placental type (Homo sapiens, UniProt P05187); test: human placental alkaline phosphatase inhibition – biochemical, luminescence, confirmation (AID 1512); type: functional
[21] = target: T8, Alkaline phosphatase, tissue-nonspecific isozyme (Homo sapiens, UniProt P05186); test: potency against alkaline phosphatase TNAP – biochemical, luminescent, dose response, SAR follow-up (AID 1056)
T8 sequence (P05186 whole entry): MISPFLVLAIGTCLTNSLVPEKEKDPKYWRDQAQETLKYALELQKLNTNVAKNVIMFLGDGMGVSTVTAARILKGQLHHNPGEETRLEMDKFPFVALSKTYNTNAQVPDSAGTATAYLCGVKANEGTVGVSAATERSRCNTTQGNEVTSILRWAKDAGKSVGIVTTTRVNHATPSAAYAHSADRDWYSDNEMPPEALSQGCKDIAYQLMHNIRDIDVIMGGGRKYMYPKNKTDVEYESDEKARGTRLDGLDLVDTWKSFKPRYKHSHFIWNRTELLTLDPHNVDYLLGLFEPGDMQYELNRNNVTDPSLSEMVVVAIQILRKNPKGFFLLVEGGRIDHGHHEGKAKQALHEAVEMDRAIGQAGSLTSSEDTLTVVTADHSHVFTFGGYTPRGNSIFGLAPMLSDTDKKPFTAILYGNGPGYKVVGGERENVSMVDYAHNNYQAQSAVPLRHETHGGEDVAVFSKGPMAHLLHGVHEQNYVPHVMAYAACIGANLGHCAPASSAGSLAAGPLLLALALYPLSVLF

T2 sequence (Q9UBE0 whole entry): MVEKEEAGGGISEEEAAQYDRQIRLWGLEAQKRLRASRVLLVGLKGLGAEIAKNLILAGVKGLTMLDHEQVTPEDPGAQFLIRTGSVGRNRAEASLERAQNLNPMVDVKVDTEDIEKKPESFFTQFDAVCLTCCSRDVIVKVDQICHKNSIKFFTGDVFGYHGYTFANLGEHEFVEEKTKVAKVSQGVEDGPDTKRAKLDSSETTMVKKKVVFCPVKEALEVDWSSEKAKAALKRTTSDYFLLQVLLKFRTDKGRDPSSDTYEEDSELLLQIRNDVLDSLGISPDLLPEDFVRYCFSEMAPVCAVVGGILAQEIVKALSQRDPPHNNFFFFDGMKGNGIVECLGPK
T2 sequence (Q9UBT2 whole entry): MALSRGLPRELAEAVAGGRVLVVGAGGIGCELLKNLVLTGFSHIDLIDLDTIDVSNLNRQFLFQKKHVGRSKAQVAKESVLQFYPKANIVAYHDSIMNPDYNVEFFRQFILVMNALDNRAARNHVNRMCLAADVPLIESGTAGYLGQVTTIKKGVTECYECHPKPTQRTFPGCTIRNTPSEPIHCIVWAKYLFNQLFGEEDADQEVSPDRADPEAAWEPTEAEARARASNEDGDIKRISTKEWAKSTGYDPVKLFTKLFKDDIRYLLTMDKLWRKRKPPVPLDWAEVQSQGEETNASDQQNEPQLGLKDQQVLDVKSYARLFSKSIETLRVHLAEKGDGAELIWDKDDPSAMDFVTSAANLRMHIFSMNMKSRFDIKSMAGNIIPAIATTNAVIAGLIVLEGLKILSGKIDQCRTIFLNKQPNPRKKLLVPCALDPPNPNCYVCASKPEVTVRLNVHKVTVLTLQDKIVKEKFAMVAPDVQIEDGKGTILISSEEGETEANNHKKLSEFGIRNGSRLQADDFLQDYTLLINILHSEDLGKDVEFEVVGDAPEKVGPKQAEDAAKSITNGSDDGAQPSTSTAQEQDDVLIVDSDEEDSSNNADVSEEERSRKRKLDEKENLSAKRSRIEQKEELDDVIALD
Sequence of Alkaline phosphatase, placental type (P05187 whole entry): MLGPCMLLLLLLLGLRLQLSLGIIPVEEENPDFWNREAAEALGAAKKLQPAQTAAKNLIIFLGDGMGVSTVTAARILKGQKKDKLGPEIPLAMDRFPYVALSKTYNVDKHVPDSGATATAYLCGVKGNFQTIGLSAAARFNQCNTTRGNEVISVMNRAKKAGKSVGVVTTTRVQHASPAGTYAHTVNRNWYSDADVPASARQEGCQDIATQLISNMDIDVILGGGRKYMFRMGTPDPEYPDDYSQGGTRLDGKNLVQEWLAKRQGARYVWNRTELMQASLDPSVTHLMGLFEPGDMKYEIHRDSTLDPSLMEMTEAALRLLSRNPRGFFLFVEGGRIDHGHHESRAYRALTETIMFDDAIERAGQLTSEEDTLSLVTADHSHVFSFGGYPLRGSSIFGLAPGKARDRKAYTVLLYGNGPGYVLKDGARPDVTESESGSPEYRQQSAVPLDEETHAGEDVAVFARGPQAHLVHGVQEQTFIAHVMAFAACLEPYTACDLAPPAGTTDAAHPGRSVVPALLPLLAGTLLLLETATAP
Sequence of Lysine-specific demethylase 4C (Q9H3R0 whole entry): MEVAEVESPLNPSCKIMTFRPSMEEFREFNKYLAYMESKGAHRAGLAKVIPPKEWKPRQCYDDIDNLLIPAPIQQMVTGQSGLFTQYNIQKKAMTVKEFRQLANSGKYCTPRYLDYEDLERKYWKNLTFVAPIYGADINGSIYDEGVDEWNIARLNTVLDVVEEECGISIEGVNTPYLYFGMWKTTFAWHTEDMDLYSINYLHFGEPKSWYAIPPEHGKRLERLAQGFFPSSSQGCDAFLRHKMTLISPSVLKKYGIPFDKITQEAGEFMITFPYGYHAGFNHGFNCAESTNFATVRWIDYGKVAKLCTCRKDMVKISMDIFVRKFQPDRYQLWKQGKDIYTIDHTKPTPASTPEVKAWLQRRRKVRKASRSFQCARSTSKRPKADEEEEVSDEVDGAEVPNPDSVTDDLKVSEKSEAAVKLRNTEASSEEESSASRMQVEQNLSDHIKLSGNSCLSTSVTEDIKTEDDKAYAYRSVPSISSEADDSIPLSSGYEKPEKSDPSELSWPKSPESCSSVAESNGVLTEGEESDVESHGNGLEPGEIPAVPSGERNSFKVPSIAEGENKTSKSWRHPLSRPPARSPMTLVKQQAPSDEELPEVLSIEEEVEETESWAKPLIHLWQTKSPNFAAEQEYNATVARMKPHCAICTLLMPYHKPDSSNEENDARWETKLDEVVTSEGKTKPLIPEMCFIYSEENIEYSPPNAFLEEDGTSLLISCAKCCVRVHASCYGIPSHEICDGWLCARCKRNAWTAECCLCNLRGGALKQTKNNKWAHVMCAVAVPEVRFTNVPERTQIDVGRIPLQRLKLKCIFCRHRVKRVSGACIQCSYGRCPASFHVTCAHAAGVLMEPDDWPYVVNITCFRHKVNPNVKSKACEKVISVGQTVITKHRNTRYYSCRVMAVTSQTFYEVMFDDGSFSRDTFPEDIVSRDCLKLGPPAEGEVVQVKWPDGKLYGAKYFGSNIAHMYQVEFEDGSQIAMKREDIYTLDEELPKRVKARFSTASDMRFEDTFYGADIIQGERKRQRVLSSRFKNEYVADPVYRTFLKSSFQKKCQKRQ
Sequence of SUMO E1/E2 (Q9UBE0 whole entry, the tested form may be a part): as the sequence (Q9UBE0 whole entry) above
Sequence of SUMO E1/E2 (Q9UBT2 whole entry, the tested form may be a part): as the sequence (Q9UBT2 whole entry) above
Sequence of SUMO E1/E2 (P63279 whole entry, the tested form may be a part): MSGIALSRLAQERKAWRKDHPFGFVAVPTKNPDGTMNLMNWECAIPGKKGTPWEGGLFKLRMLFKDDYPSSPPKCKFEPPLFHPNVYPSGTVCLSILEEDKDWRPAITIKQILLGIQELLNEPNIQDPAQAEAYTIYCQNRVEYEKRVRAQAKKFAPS
Sequence of Nucleotide-binding oligomerization domain-containing protein 2 (Q9HC29 whole entry, the tested form may be a part): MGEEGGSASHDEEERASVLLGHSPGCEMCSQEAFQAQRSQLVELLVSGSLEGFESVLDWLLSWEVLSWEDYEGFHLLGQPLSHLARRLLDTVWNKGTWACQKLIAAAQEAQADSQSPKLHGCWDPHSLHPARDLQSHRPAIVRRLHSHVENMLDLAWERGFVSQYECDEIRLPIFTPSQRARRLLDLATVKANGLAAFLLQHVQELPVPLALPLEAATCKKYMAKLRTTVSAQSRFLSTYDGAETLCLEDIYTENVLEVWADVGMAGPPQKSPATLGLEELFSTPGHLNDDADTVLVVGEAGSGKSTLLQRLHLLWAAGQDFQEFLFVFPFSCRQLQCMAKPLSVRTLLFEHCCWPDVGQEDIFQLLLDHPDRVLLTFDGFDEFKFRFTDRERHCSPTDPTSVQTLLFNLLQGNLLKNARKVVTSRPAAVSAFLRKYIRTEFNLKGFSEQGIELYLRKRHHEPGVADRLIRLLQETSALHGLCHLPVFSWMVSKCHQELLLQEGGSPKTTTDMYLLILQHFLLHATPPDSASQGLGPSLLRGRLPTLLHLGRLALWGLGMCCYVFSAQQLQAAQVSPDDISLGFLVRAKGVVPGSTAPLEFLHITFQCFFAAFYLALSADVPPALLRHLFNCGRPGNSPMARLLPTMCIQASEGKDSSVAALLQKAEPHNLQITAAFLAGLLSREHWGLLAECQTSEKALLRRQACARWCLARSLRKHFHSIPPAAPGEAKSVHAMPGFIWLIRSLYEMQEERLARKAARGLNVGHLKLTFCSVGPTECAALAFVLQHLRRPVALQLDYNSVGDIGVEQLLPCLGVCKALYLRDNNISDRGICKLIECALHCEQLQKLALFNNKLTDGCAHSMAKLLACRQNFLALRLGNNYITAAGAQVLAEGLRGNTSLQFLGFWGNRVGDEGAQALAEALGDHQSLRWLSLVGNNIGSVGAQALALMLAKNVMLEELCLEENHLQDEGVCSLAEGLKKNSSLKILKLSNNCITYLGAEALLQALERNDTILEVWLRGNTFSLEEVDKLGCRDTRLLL

## Cc1ccccc1NC(=O)Cn1c(O)c(N=NC(=O)c2ccccc2O)c2ccccc21
SUMO E1/E2
  IC50: 49.7 µM (active)
[1]
  IC50: 1.23 µM (active)
SUMO-activating enzyme [2]
  IC50: 8.06 µM (active)
SUMO-activating enzyme [3]
  IC50: 9.83 µM (active)

## CN(C)S(=O)(=O)N1CCC(Oc2cccc(C(=O)NC3CCCCC3)c2)CC1
HEK293 [4]
  EC50: 6.77 µM (active)
HEK293 [5]
  IC50: 11.3 µM (active)
HEK293 [6]
  IC50: 18.8 µM (active)
HEK293 [7]
  IC50: 17.5 µM (inactive)

## O=c1cc(N2CCc3ccccc32)[nH]c(=O)n1-c1ccccc1
[8]
  AC50: 20.7 µM (active)

## COc1ccc(Cl)cc1-c1nc(N)nc(NC2CCCCC2)n1
[9]
  IC50: > 79.4 µM (inactive)
[10]
  IC50: > 79.4 µM (inactive)
[11]
  IC50: > 79.4 µM (inactive)

## COc1cc(CC2C(=O)N(C)C(=O)N(C)C2=O)ccc1OCc1ccccc1
[8]
  AC50: 7.97 µM (active)

## CC1=C(C(=O)NC2CCCc3c2cnn3-c2cccc(C)c2C)OCCO1 (stereo not given)
[12]
  AC50: 3.14 µM (active)
HEK293 [4]
  EC50: 5.36 µM (active)
HEK293 [13]
  IC50: > 20 µM (inactive)
[14]
  AC50: 3.49 µM (active)
[15]
  IC50: 4.06 µM (active)
[16]
  AC50: 34.1 µM (active)
HEK293 [7]
  IC50: 11.6 µM (inactive)
[17]
  EC50: > 20 µM (inactive)

## COCCn1c(=N)c(S(=O)(=O)c2ccc(Br)cc2)cc2c(=O)n3ccccc3nc21
[18]
  EC50: 4.16 µM (active)
[9]
  IC50: > 79.4 µM (inactive)
[10]
  IC50: > 79.4 µM (inactive)
[19]
  EC50: > 300 µM (inconclusive)
[11]
  IC50: > 79.4 µM (inactive)

## COc1ccc(-c2cc(C(=O)NCCc3ccc(O)c(O)c3)c3ccccc3n2)cc1
[20]
  IC50: > 100 µM (inactive)
[21]
  IC50: > 100 µM (inactive)

## CCOc1ccc(-n2c(SCC(=O)c3ccc(O)c(O)c3)nnc2-c2ccc(OC)cc2)cc1
[20]
  IC50: > 100 µM (inactive)
[21]
  IC50: > 100 µM (inactive)
